Results published in patent US20240287080A1 (IDEAYA Biosciences Inc., priority 2021, published 2024).

Each molecule was assayed against T1, Pol theta (1-899) (Homo sapiens, UniProt O75417) (assay: Pol theta ATPase activity, NADH oxidation-coupled enzymatic assay (ATPase NADH coupling: Standard Screening: hPolQ)). Details: Pol theta (1-899) 5 nM, NADH oxidation-coupled ATPase assay; compounds of Table 3.
T1 construct: Pol theta (1-899) (5 nM) in assay buffer
Assay type: biochemical
In short: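 Rates of ATP hydrolysis taken from 60-min A340 traces of NADH oxidation via PK/LDH coupling, then fit four-parameter for IC50, Hill slope and max inhibition. Enzyme (5 nM, 1-899) and compounds preincubated 15 min before ATP 100 μM and 50-thymine ssDNA 300 nM (stock, equal volume added).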

T1 sequence (O75417 1-899): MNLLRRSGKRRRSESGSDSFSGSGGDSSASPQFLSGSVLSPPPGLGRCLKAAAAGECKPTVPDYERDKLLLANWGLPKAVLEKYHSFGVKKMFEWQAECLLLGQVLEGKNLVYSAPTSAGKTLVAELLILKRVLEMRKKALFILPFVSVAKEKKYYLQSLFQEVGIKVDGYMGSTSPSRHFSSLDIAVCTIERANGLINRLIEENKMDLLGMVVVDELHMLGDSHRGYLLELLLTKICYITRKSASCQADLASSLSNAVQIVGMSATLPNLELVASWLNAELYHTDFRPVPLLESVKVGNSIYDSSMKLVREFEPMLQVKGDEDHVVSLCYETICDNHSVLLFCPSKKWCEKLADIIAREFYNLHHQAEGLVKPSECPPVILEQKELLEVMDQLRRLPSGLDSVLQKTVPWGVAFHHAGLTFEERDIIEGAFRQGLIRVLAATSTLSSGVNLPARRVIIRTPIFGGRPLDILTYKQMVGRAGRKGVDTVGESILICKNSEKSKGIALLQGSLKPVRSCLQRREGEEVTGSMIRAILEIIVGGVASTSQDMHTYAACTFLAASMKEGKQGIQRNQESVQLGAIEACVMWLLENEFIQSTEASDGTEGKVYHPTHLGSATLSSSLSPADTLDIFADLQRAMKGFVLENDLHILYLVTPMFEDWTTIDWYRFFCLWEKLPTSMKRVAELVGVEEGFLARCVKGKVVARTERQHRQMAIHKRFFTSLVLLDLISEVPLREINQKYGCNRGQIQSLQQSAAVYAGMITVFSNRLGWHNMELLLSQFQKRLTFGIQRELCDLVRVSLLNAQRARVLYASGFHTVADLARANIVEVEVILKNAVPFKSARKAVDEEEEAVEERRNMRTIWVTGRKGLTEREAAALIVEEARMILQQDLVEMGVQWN

For `COc1cnc(Cl)cc1-c1cc(C)ncc1C(=O)Nc1nnc(O[C@H]2CO[C@H]3OCC[C@H]32)s1` [Example 262, 2′-chloro-N-(5-(((3R,3aS,6aR)-hexahydrofuro[2,3-b]furan-3-yl)oxy)-1,3,4-thiadiazol-2-yl)-5′-methoxy-6-methyl-[4,4′-bipyridine]-3-carboxamide], which IC50 is on record?
The IC50 was ≤ 200 nM.

How did the IC50 turn out when `COc1nnc(NC(=O)c2cnc(C)cc2-c2ccc3c(c2)OC(F)(F)O3)s1` [Example 349, 4-(2,2-difluoro-2H-1,3-benzodioxol-5-yl)-N-(5-methoxy-1,3,4-thiadiazol-2-yl)-6-methylpyridine-3-carboxamide] was run?
The IC50 was 1000 to 10000 nM.

For `COc1nnc(NC(=O)c2cnc(C)cc2-c2cccc3ccoc23)s1` [Example 367, 4-(1-benzofuran-7-yl)-N-(5-methoxy-1,3,4-thiadiazol-2-yl)-6-methylpyridine-3-carboxamide], which IC50 is on record?
The IC50 was 200 to 500 nM.

For `COc1nnc(NC(=O)c2ccncc2-c2cc(Cl)ncc2OC)s1` [Example 259, 2′-chloro-5′-methoxy-N-(5-methoxy-1,3,4-thiadiazol-2-yl)-[3,4′-bipyridine]-4-carboxamide], which IC50 is on record?
Its IC50 is ≤ 200 nM.

Which IC50 does the source give for `CCc1ccc(-c2cc(C)ncc2C(=O)Nc2nnc(OC)s2)cc1` [Example 459, 4-(4-ethylphenyl)-N-(5-methoxy-1,3,4-thiadiazol-2-yl)-6-methylpyridine-3-carboxamide] here?
Its IC50 is 1000 to 10000 nM.

`COc1nnc(NC(=O)c2cnc(C)cc2-c2ccc(OC)c(F)c2)s1` [Example 419, 4-(3-fluoro-4-methoxyphenyl)-N-(5-methoxy-1,3,4-thiadiazol-2-yl)-6-methylpyridine-3-carboxamide] was tested. Which IC50 did it give?
Its IC50 is 1000 to 10000 nM.

Which IC50 does the source give for `COc1cnc(C)cc1-c1cc(C)ncc1C(=O)Nc1nnc(O)s1` [Example 325, N-(5-hydroxy-1,3,4-thiadiazol-2-yl)-5′-methoxy-2′,6-dimethyl-[4,4′-bipyridine]-3-carboxamide] here?
Its IC50 is 1000 to 10000 nM.

For `COc1nnc(NC(=O)c2cnc(C)cc2-c2cnn3c2CCCC3)s1` [Example 395, N-(5-methoxy-1,3,4-thiadiazol-2-yl)-6-methyl-4-{4H,5H,6H,7H-pyrazolo[1,5-a]pyridin-3-yl}pyridine-3-carboxamide], which IC50 is on record?
The IC50 was 1000 to 10000 nM.

How did the IC50 turn out when `COc1nnc(NC(=O)c2cnc(C)cc2-c2cc(F)cc(F)c2)s1` [Example 337, 4-(3,5-difluorophenyl)-N-(5-methoxy-1,3,4-thiadiazol-2-yl)-6-methylpyridine-3-carboxamide] was run?
The IC50 was 500 to 1000 nM.

How did the IC50 turn out when `COc1nnc(NC(=O)c2cnc(C)cc2-c2ccc3ccn(C)c3c2)s1` [Example 480, N-(5-methoxy-1,3,4-thiadiazol-2-yl)-6-methyl-4-(1-methyl-1H-indol-6-yl)pyridine-3-carboxamide] was run?
The IC50 was 1000 to 10000 nM.

Which IC50 does the source give for `COc1nnc(NC(=O)c2cc(C#N)ncc2-c2cc(Cl)ncc2OC)s1` [Example 290, 2′-chloro-6-cyano-5′-methoxy-N-(5-methoxy-1,3,4-thiadiazol-2-yl)-[3,4′-bipyridine]-4-carboxamide] here?
Its IC50 is 200 to 500 nM.

How did the IC50 turn out when `COc1cnc(Cl)cc1-c1cc(C)ncc1C(=O)Nc1nnc(O[C@@H]2C[C@@H]3C[C@H]2C[C@H]3O)s1` (single isomer, unassigned) [Example 263] was run?
Its IC50 is ≤ 200 nM.

`COc1nnc(NC(=O)c2cnc(C)cc2-c2cccc3sccc23)s1` [Example 423, 4-(1-benzothiophen-4-yl)-N-(5-methoxy-1,3,4-thiadiazol-2-yl)-6-methylpyridine-3-carboxamide] was tested. Which IC50 did it give?
Its IC50 is 200 to 500 nM.

Which IC50 does the source give for `COc1nnc(NC(=O)c2cnc(C)cc2-c2cc(Br)c([S@+](C)[O-])cc2OC)s1` (single isomer, unassigned) [Example 322] here?
Its IC50 is 500 to 1000 nM.

Which IC50 does the source give for `COCCOc1cccc(-c2cc(C)ncc2C(=O)Nc2nnc(OC)s2)c1` [Example 429, N-(5-methoxy-1,3,4-thiadiazol-2-yl)-4-[3-(2-methoxyethoxy)phenyl]-6-methylpyridine-3-carboxamide] here?
Its IC50 is 1000 to 10000 nM.

`COc1cnc(C)cc1-c1cc(C)ncc1C(=O)Nc1nnc(O[C@H]2COC[C@@H]2OC(C)C)s1` [Example 246] was tested. Which IC50 did it give?
Its IC50 is ≤ 200 nM.

For `COc1nnc(NC(=O)c2ccccc2-c2cc(Cl)ncc2OC)s1` [Example 291, 2-(2-chloro-5-methoxypyridin-4-yl)-N-(5-methoxy-1,3,4-thiadiazol-2-yl)benzamide], which IC50 is on record?
Its IC50 is ≤ 200 nM.

Same assay, conditions: Table 4; Pol theta (1-899) 5 nM, ATP, dT50 ssDNA

`COc1nnc(NC(=O)c2cnc(C)cc2-c2c(OC)cnc(Cl)c2F)s1` [Example 47, 2′-chloro-3′-fluoro-5′-methoxy-N-(5-methoxy-1,3,4-thiadiazol-2-yl)-6-methyl-(4,4′-bipyridine)-3-carboxamide] was tested. Which IC50 did it give?
The IC50 was ≤ 200 nM.

`COc1nnc(NC(=O)c2cnc(C)cc2-c2cc(C)ncc2OC)s1` [Example 8] was tested. Which IC50 did it give?
The IC50 was ≤ 200 nM.

Which IC50 does the source give for `CCOc1cnc(Cl)cc1-c1cc(C)ncc1C(=O)Nc1nnc(OC)s1` [Example 42, 2′-chloro-5′-ethoxy-N-(5-methoxy-1,3,4-thiadiazol-2-yl)-6-methyl-(4,4′-bipyridine)-3-carboxamide] here?
The IC50 was 200 to 500 nM.

For `COc1nnc(NC(=O)c2cnc(C)cc2-c2c(OC)cnc(C)c2F)s1` [Example 61, 3′-fluoro-5′-methoxy-N-(5-methoxy-1,3,4-thiadiazol-2-yl)-2′,6-dimethyl-(4,4′-bipyridine)-3-carboxamide], which IC50 is on record?
Its IC50 is ≤ 200 nM.

How did the IC50 turn out when `COc1nnc(NC(=O)c2cnc(C)cc2-c2cc(C)ncc2C)s1` [Example 56, N-(5-methoxy-1,3,4-thiadiazol-2-yl)-2′,5′,6-trimethyl-(4,4′-bipyridine)-3-carboxamide] was run?
Its IC50 is 200 to 500 nM.

With `COc1nnc(NC(=O)c2cnc(C)cc2-c2c(C)n[nH]c2C)s1` [Example 40, 4-(3,5-dimethyl-1H-pyrazol-4-yl)-N-(5-methoxy-1,3,4-thiadiazol-2-yl)-6-methylnicotinamide] as the molecule, how does the IC50 read?
Its IC50 is 1000 to 10000 nM.

`COc1nnc(NC(=O)c2cnc(C)cc2-c2cc(C)ccc2OC)s1` [Example 30, N-(5-methoxy-1,3,4-thiadiazol-2-yl)-4-(2-methoxy-5-methylphenyl)-6-methylnicotinamide] was tested. Which IC50 did it give?
Its IC50 is ≤ 200 nM.

Which IC50 does the source give for `COc1cnc(Cl)cc1-c1cc(C)ncc1C(=O)Nc1nnc(OCC(C)C)s1` [Example 21, 2′-chloro-N-(5-isobutoxy-1,3,4-thiadiazol-2-yl)-5′-methoxy-6-methyl-(4,4′-bipyridine)-3-carboxamide] here?
Its IC50 is ≤ 200 nM.

Same assay, conditions: Table 5; Pol theta (1-899) 5 nM, ATP, dT50 ssDNA

With `COc1cnc(Cl)cc1-c1cc(C)ncc1C(=O)Nc1nnc(OC2CCCC2OC)s1` (stereo not drawn) [Example 163, 2′-chloro-5′-methoxy-N-(5-((2-methoxycyclopentyl)oxy)-1,3,4-thiadiazol-2-yl)-6-methyl-(4,4′-bipyridine)-3-carboxamide] as the molecule, how does the IC50 read?
The IC50 was ≤ 200 nM.

With `COc1cnc(Cl)cc1-c1cc(C)ncc1C(=O)Nc1nnc(O[C@H]2CCC[C@@](C)(O)C2)s1` (single isomer, unassigned) [Example 179] as the molecule, how does the IC50 read?
Its IC50 is ≤ 200 nM.

With `COc1nnc(NC(=O)c2cnc(C)cc2-c2ccncc2OC)s1` [Example 101, 3′-methoxy-N-(5-methoxy-1,3,4-thiadiazol-2-yl)-6-methyl-(4,4′-bipyridine)-3-carboxamide] as the molecule, how does the IC50 read?
Its IC50 is 1000 to 10000 nM.

`COc1cnc(Br)cc1-c1cc(C)ncc1C(=O)Nc1nnc(O[C@H]2CC[C@@](C)(O)CC2)s1` (single isomer, unassigned) [Example 222, 2′-bromo-N-(5-(((1s,4s)-4-hydroxy-4-methylcyclohexyl)oxy)-1,3,4-thiadiazol-2-yl)-5′-methoxy-6-methyl-(4,4′-bipyridine)-3-carboxamide] was tested. Which IC50 did it give?
Its IC50 is ≤ 200 nM.

How did the IC50 turn out when `COc1cnc(Cl)c(F)c1-c1cc(C)ncc1C(=O)Nc1nnc(O[C@@H]2CCO[C@H]2C)s1` (single isomer, unassigned) [Example 167] was run?
Its IC50 is ≤ 200 nM.

For `Cc1cc(-c2cc(Cl)ncc2OC(F)F)c(C(=O)Nc2nnc(O[C@H]3COC4(CC4)C3)s2)cn1` (single isomer, unassigned) [Example 233], which IC50 is on record?
Its IC50 is ≤ 200 nM.

With `COc1cnc(C)c(F)c1-c1cc(C)ncc1C(=O)Nc1nnc(O[C@H]2CC[C@H](O)CC2)s1` [Example 202, 3′-fluoro-N-(5-(((1r,4r)-4-hydroxycyclohexyl)oxy)-1,3,4-thiadiazol-2-yl)-5′-methoxy-2′,6-dimethyl-(4,4′-bipyridine)-3-carboxamide] as the molecule, how does the IC50 read?
Its IC50 is ≤ 200 nM.

For `COc1cnc(Cl)c(F)c1-c1cc(C)ncc1C(=O)Nc1nnc(O[C@H]2C[C@@H](O)C2)s1` [Example 129, 2′-chloro-3′-fluoro-N-(5-((1s,3s)-3-hydroxycyclobutoxy)-1,3,4-thiadiazol-2-yl)-5′-methoxy-6-methyl-(4,4′-bipyridine)-3-carboxamide], which IC50 is on record?
Its IC50 is ≤ 200 nM.

How did the IC50 turn out when `COc1cnc(Cl)cc1-c1cc(C)ncc1C(=O)Nc1nnc(O[C@H]2CCO[C@H]2C)s1` (racemic) [Example 92, rac-2′-Chloro-5′-methoxy-6-methyl-N-(5-(((2R,3R)-2-methyltetrahydrofuran-3-yl)oxy)-1,3,4-thiadiazol-2-yl)-(4,4′-bipyridine)-3-carboxamide] was run?
The IC50 was 200 to 500 nM.

How did the IC50 turn out when `COc1cnc(Cl)cc1-c1cc(C)ncc1C(=O)Nc1nnc(O[C@H]2COC(C)(C)C2)s1` (single isomer, unassigned) [Example 131] was run?
Its IC50 is ≤ 200 nM.

`COc1cnc(Cl)cc1-c1cc(C)ncc1C(=O)Nc1nnc(O[C@H]2CC[C@H]([C@@H](C)O)CC2)s1` (single isomer, unassigned) [Example 199] was tested. Which IC50 did it give?
The IC50 was ≤ 200 nM.

`COc1cnc(Cl)cc1-c1cc(C)ncc1C(=O)Nc1nnc(O[C@@H]2CCC[C@@H](O)C2)s1` (single isomer, unassigned) [Example 162] was tested. Which IC50 did it give?
The IC50 was ≤ 200 nM.

`COc1cnc(Cl)cc1-c1cc(C)ncc1C(=O)Nc1nnc(O[C@H]2COCC2(F)F)s1` (single isomer, unassigned) [Example 128] was tested. Which IC50 did it give?
Its IC50 is ≤ 200 nM.

Same assay, conditions: Table 5; values given as bound; Pol theta (1-899) 5 nM, ATP, dT50 ssDNA

With `COc1nnc(NC(=O)c2cnc(C)cc2-c2cccc3scnc23)s1` [Example 98, 4-(benzo(d)thiazol-4-yl)-N-(5-methoxy-1,3,4-thiadiazol-2-yl)-6-methylnicotinamide] as the molecule, how does the IC50 read?
Its IC50 is > 10000 nM.
